In publication PMC11779965 (Nature Communications, 2025):

Columns and labels:
physchem = conditions: pH 7.4, […]
[1] = clogP calculated with ChemAxon Marvin Sketch; conditions: 78 vs Sulfadiazine
female CD-1 mice = assay: Catalepsy bar test; assay type: in vivo; conditions: 200 mg/kg IP, 90 min after dosing

SMILES | Catalepsy score compared to Vehicle-treated group (in words) (female CD-1 mice) | further results
Nc1ccc(S(=O)(=O)Nc2ncccn2)cc1 [Sulfadiazine] | – | logD (physchem): -0.8
CS(=O)(=O)c1cnc(NS(=O)(=O)c2ccc(N)cc2)nc1.Cl [Compound 78] | – | Decrease of lipophilicity on replacement of H with MeSO2 [1]: ca. 1.2 clogP units
CCN(CC)CCNC(=O)c1cc(S(C)(=O)=O)cnc1OC [Compound 79] | remained at the level of the Control Vehicle-treated group | –
CCN(CC)CCNC(=O)c1cc(S(C)(=O)=O)ccc1OC [Tiapride] | significantly higher | –
